These results are taken from publication PMC12748989 (Nature Communications, 2025).

In one assay the test system is PBMC. Conditions: 12.5 µM.

For the molecule `CC[C@H](C)[C@H](N)C(=O)N[C@@H](CC(N)=O)C(=O)N[C@@H](Cc1c[nH]cn1)C(=O)N[C@@H](CCCCN)C(=O)N[C@@H](C)C(=O)N[C@@H](CC(C)C)C(=O)N[C@@H](C)C(=O)N[C@@H](C)C(=O)N[C@@H](CC(C)C)C(=O)N[C@@H](C)C(=O)N[C@@H](CCCCN)C(=O)N[C@@H](CCCCN)C(=O)N[C@H](C(=O)N[C@@H](CC(C)C)C(N)=O)[C@@H](C)CC` [H3], in the assay on PBMC, the “Average (percentage cell inhibition), Mastoparan PBMC” value is given as -4.438%. In addition, the “Average (percentage cell inhibition), Dmastoparan MDA-MB231 12.5uM” value in the assay on MDA-MB-231 cells amounted to 10.8919%.
In the case of `CC[C@H](C)[C@H](N)C(=O)N[C@@H](CC(N)=O)C(=O)N[C@@H](CC(C)C)C(=O)N[C@@H](Cc1c[nH]cn1)C(=O)N[C@@H](C)C(=O)N[C@@H](CC(C)C)C(=O)N[C@@H](C)C(=O)N[C@@H](C)C(=O)N[C@@H](CC(C)C)C(=O)N[C@@H](C)C(=O)N[C@@H](CCCCN)C(=O)N[C@@H](CCCCN)C(=O)N[C@H](C(=O)N[C@@H](CC(C)C)C(N)=O)[C@@H](C)CC` [H4], the “Average (percentage cell inhibition), Mastoparan PBMC” value in the assay on PBMC is -2.6725%. In addition, in the assay on MDA-MB-231 cells, the “Average (percentage cell inhibition), Dmastoparan MDA-MB231 12.5uM” value is listed as 21.387%.
`CC[C@H](C)[C@H](N)C(=O)N[C@@H](CC(N)=O)C(=O)N[C@@H](CC(C)C)C(=O)N[C@@H](CCCCN)C(=O)N[C@@H](Cc1c[nH]cn1)C(=O)N[C@@H](CC(C)C)C(=O)N[C@@H](C)C(=O)N[C@@H](C)C(=O)N[C@@H](CC(C)C)C(=O)N[C@@H](C)C(=O)N[C@@H](CCCCN)C(=O)N[C@@H](CCCCN)C(=O)N[C@H](C(=O)N[C@@H](CC(C)C)C(N)=O)[C@@H](C)CC` [H5]: in the assay with PBMC, the “Average (percentage cell inhibition), Mastoparan PBMC” value is on record as 3.516%. Also, the “Average (percentage cell inhibition), Dmastoparan MDA-MB231 12.5uM” value in the assay with MDA-MB-231 cells is 26.5106%.
As for `CC[C@H](C)[C@H](N)C(=O)N[C@@H](CC(N)=O)C(=O)N[C@@H](CC(C)C)C(=O)N[C@@H](CCCCN)C(=O)N[C@@H](C)C(=O)N[C@@H](Cc1c[nH]cn1)C(=O)N[C@@H](C)C(=O)N[C@@H](C)C(=O)N[C@@H](CC(C)C)C(=O)N[C@@H](C)C(=O)N[C@@H](CCCCN)C(=O)N[C@@H](CCCCN)C(=O)N[C@H](C(=O)N[C@@H](CC(C)C)C(N)=O)[C@@H](C)CC` [H6], in the assay on PBMC, the “Average (percentage cell inhibition), Mastoparan PBMC” value is on record as -12.6494%. Further, the “Average (percentage cell inhibition), Dmastoparan MDA-MB231 12.5uM” value in the assay with MDA-MB-231 cells is given as 1.275%.
Turning to `CC[C@H](C)[C@H](N)C(=O)N[C@@H](CC(N)=O)C(=O)N[C@@H](CC(C)C)C(=O)N[C@@H](CCCCN)C(=O)N[C@@H](C)C(=O)N[C@@H](CC(C)C)C(=O)N[C@@H](Cc1c[nH]cn1)C(=O)N[C@@H](C)C(=O)N[C@@H](CC(C)C)C(=O)N[C@@H](C)C(=O)N[C@@H](CCCCN)C(=O)N[C@@H](CCCCN)C(=O)N[C@H](C(=O)N[C@@H](CC(C)C)C(N)=O)[C@@H](C)CC` [H7], in the assay on PBMC, the “Average (percentage cell inhibition), Mastoparan PBMC” value was 4.935%. Moreover, the “Average (percentage cell inhibition), Dmastoparan MDA-MB231 12.5uM” value in the assay on MDA-MB-231 cells came out at 37.3401%.
As for `CC[C@H](C)[C@H](N)C(=O)N[C@@H](CC(N)=O)C(=O)N[C@@H](CC(C)C)C(=O)N[C@@H](CCCCN)C(=O)N[C@@H](C)C(=O)N[C@@H](CC(C)C)C(=O)N[C@@H](C)C(=O)N[C@@H](Cc1c[nH]cn1)C(=O)N[C@@H](CC(C)C)C(=O)N[C@@H](C)C(=O)N[C@@H](CCCCN)C(=O)N[C@@H](CCCCN)C(=O)N[C@H](C(=O)N[C@@H](CC(C)C)C(N)=O)[C@@H](C)CC` [H8], in the assay on PBMC, the “Average (percentage cell inhibition), Mastoparan PBMC” value was -4.293%. Further, the “Average (percentage cell inhibition), Dmastoparan MDA-MB231 12.5uM” value with MDA-MB-231 cells is given as 53.8201%.
On to `CC[C@H](C)[C@H](N)C(=O)N[C@@H](CC(N)=O)C(=O)N[C@@H](CC(C)C)C(=O)N[C@@H](CCCCN)C(=O)N[C@@H](C)C(=O)N[C@@H](CC(C)C)C(=O)N[C@@H](C)C(=O)N[C@@H](C)C(=O)N[C@@H](Cc1c[nH]cn1)C(=O)N[C@@H](C)C(=O)N[C@@H](CCCCN)C(=O)N[C@@H](CCCCN)C(=O)N[C@H](C(=O)N[C@@H](CC(C)C)C(N)=O)[C@@H](C)CC` [H9], for which, in the assay on PBMC, the “Average (percentage cell inhibition), Mastoparan PBMC” value is -4.349%. For the same molecule, the “Average (percentage cell inhibition), Dmastoparan MDA-MB231 12.5uM” value in the assay on MDA-MB-231 cells is reported as 18.6976%.
Taken in the same sequence, the figures for `CC[C@H](C)[C@H](N)C(=O)N[C@@H](CC(N)=O)C(=O)N[C@@H](CC(C)C)C(=O)N[C@@H](CCCCN)C(=O)N[C@@H](C)C(=O)N[C@@H](CC(C)C)C(=O)N[C@@H](C)C(=O)N[C@@H](C)C(=O)N[C@@H](CC(C)C)C(=O)N[C@@H](Cc1c[nH]cn1)C(=O)N[C@@H](CCCCN)C(=O)N[C@@H](CCCCN)C(=O)N[C@H](C(=O)N[C@@H](CC(C)C)C(N)=O)[C@@H](C)CC` [H10] were -10.8779% and -5.968%.
Take `CC[C@H](C)[C@H](N)C(=O)N[C@@H](CC(N)=O)C(=O)N[C@@H](CC(C)C)C(=O)N[C@@H](CCCCN)C(=O)N[C@@H](C)C(=O)N[C@@H](CC(C)C)C(=O)N[C@@H](C)C(=O)N[C@@H](C)C(=O)N[C@@H](CC(C)C)C(=O)N[C@@H](C)C(=O)N[C@@H](Cc1c[nH]cn1)C(=O)N[C@@H](CCCCN)C(=O)N[C@H](C(=O)N[C@@H](CC(C)C)C(N)=O)[C@@H](C)CC` [H11]: the “Average (percentage cell inhibition), Mastoparan PBMC” value with PBMC is listed as -0.6179%. Further, in the assay on MDA-MB-231 cells, the “Average (percentage cell inhibition), Dmastoparan MDA-MB231 12.5uM” value is reported as 27.1728%.
Regarding `CC[C@H](C)[C@H](N)C(=O)N[C@@H](CC(N)=O)C(=O)N[C@@H](CC(C)C)C(=O)N[C@@H](CCCCN)C(=O)N[C@@H](C)C(=O)N[C@@H](CC(C)C)C(=O)N[C@@H](C)C(=O)N[C@@H](C)C(=O)N[C@@H](CC(C)C)C(=O)N[C@@H](C)C(=O)N[C@@H](CCCCN)C(=O)N[C@@H](Cc1c[nH]cn1)C(=O)N[C@H](C(=O)N[C@@H](CC(C)C)C(N)=O)[C@@H](C)CC` [H12], the “Average (percentage cell inhibition), Mastoparan PBMC” value in the assay on PBMC turned out to be 0.5315%. For the same molecule, in the assay with MDA-MB-231 cells, the “Average (percentage cell inhibition), Dmastoparan MDA-MB231 12.5uM” value amounted to 31.16%.
On to `CC[C@H](C)[C@H](N)C(=O)N[C@@H](CC(N)=O)C(=O)N[C@@H](CC(C)C)C(=O)N[C@@H](CCCCN)C(=O)N[C@@H](C)C(=O)N[C@@H](CC(C)C)C(=O)N[C@@H](C)C(=O)N[C@@H](C)C(=O)N[C@@H](CC(C)C)C(=O)N[C@@H](C)C(=O)N[C@@H](CCCCN)C(=O)N[C@@H](CCCCN)C(=O)N[C@@H](Cc1c[nH]cn1)C(=O)N[C@@H](CC(C)C)C(N)=O` [H13], for which the “Average (percentage cell inhibition), Mastoparan PBMC” value with PBMC is given as -0.416%. Moreover, the “Average (percentage cell inhibition), Dmastoparan MDA-MB231 12.5uM” value with MDA-MB-231 cells was found to be 24.5783%.
Take `CC[C@H](C)[C@H](N)C(=O)N[C@@H](CC(N)=O)C(=O)N[C@@H](CC(C)C)C(=O)N[C@@H](CCCCN)C(=O)N[C@@H](C)C(=O)N[C@@H](CC(C)C)C(=O)N[C@@H](C)C(=O)N[C@@H](C)C(=O)N[C@@H](CC(C)C)C(=O)N[C@@H](C)C(=O)N[C@@H](CCCCN)C(=O)N[C@@H](CCCCN)C(=O)N[C@H](C(=O)N[C@@H](Cc1c[nH]cn1)C(N)=O)[C@@H](C)CC` [H14]: the “Average (percentage cell inhibition), Mastoparan PBMC” value in the assay on PBMC is recorded as -11.4515%. The “Average (percentage cell inhibition), Dmastoparan MDA-MB231 12.5uM” value in the assay on MDA-MB-231 cells was found to be 14.7055%.
With `CC[C@H](C)[C@H](N)C(=O)N[C@H](C(=O)N[C@@H](CC(C)C)C(=O)N[C@@H](CCCCN)C(=O)N[C@@H](C)C(=O)N[C@@H](CC(C)C)C(=O)N[C@@H](C)C(=O)N[C@@H](C)C(=O)N[C@@H](CC(C)C)C(=O)N[C@@H](C)C(=O)N[C@@H](CCCCN)C(=O)N[C@@H](CCCCN)C(=O)N[C@H](C(=O)N[C@@H](CC(C)C)C(N)=O)[C@@H](C)CC)[C@@H](C)CC` [I2], the “Average (percentage cell inhibition), Mastoparan PBMC” value with PBMC amounted to 42.1735%. Besides, the “Average (percentage cell inhibition), Dmastoparan MDA-MB231 12.5uM” value with MDA-MB-231 cells was determined as 82.9517%.
As to `CC[C@H](C)[C@H](N)C(=O)N[C@@H](CC(N)=O)C(=O)N[C@H](C(=O)N[C@@H](CCCCN)C(=O)N[C@@H](C)C(=O)N[C@@H](CC(C)C)C(=O)N[C@@H](C)C(=O)N[C@@H](C)C(=O)N[C@@H](CC(C)C)C(=O)N[C@@H](C)C(=O)N[C@@H](CCCCN)C(=O)N[C@@H](CCCCN)C(=O)N[C@H](C(=O)N[C@@H](CC(C)C)C(N)=O)[C@@H](C)CC)[C@@H](C)CC` [I3], in the assay on PBMC, the “Average (percentage cell inhibition), Mastoparan PBMC” value came out at 14.9456%. The “Average (percentage cell inhibition), Dmastoparan MDA-MB231 12.5uM” value in the assay with MDA-MB-231 cells was 30.5933%.
In the case of `CC[C@H](C)[C@H](N)C(=O)N[C@@H](CC(N)=O)C(=O)N[C@@H](CC(C)C)C(=O)N[C@H](C(=O)N[C@@H](C)C(=O)N[C@@H](CC(C)C)C(=O)N[C@@H](C)C(=O)N[C@@H](C)C(=O)N[C@@H](CC(C)C)C(=O)N[C@@H](C)C(=O)N[C@@H](CCCCN)C(=O)N[C@@H](CCCCN)C(=O)N[C@H](C(=O)N[C@@H](CC(C)C)C(N)=O)[C@@H](C)CC)[C@@H](C)CC` [I4], the “Average (percentage cell inhibition), Mastoparan PBMC” value in the assay with PBMC was determined as 5.736%. The “Average (percentage cell inhibition), Dmastoparan MDA-MB231 12.5uM” value in the assay with MDA-MB-231 cells stood at 30.9221%.
Taken in the same sequence, the figures for `CC[C@H](C)[C@H](N)C(=O)N[C@@H](CC(N)=O)C(=O)N[C@@H](CC(C)C)C(=O)N[C@@H](CCCCN)C(=O)N[C@H](C(=O)N[C@@H](CC(C)C)C(=O)N[C@@H](C)C(=O)N[C@@H](C)C(=O)N[C@@H](CC(C)C)C(=O)N[C@@H](C)C(=O)N[C@@H](CCCCN)C(=O)N[C@@H](CCCCN)C(=O)N[C@H](C(=O)N[C@@H](CC(C)C)C(N)=O)[C@@H](C)CC)[C@@H](C)CC` [I5] were 29.3206% and 71.3869%.
As to `CC[C@H](C)[C@H](N)C(=O)N[C@@H](CC(N)=O)C(=O)N[C@@H](CC(C)C)C(=O)N[C@@H](CCCCN)C(=O)N[C@@H](C)C(=O)N[C@H](C(=O)N[C@@H](C)C(=O)N[C@@H](C)C(=O)N[C@@H](CC(C)C)C(=O)N[C@@H](C)C(=O)N[C@@H](CCCCN)C(=O)N[C@@H](CCCCN)C(=O)N[C@H](C(=O)N[C@@H](CC(C)C)C(N)=O)[C@@H](C)CC)[C@@H](C)CC` [I6], the “Average (percentage cell inhibition), Mastoparan PBMC” value with PBMC is listed as 13.3589%. Besides, in the assay with MDA-MB-231 cells, the “Average (percentage cell inhibition), Dmastoparan MDA-MB231 12.5uM” value was 31.3138%.
The matching figures for `CC[C@H](C)[C@H](N)C(=O)N[C@@H](CC(N)=O)C(=O)N[C@@H](CC(C)C)C(=O)N[C@@H](CCCCN)C(=O)N[C@@H](C)C(=O)N[C@@H](CC(C)C)C(=O)N[C@H](C(=O)N[C@@H](C)C(=O)N[C@@H](CC(C)C)C(=O)N[C@@H](C)C(=O)N[C@@H](CCCCN)C(=O)N[C@@H](CCCCN)C(=O)N[C@H](C(=O)N[C@@H](CC(C)C)C(N)=O)[C@@H](C)CC)[C@@H](C)CC` [I7]: 39.466% and 72.6071%.
